What was measured:
ΔF508-CFTR [1] = target: T1, ΔF508-CFTR (Homo sapiens, UniProt P13569, DEL508-508); assay: CFTR cell surface levels using HRP-tagged ΔF508-CFTR expressing CFBE cells, in the presence of a co-corrector; type: cell-based; conditions: HRP-tagged ΔF508-CFTR expressing CFBE cells, in the presence of 3 μM co-corrector; for EC50: read-out: EC50
T1 construct: host or cells: CFBE41o-, doxycycline-inducible
Method in brief: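 Cells were seeded with 0.5 μg/mL doxycycline and held 68 h at 37 °C. Test compounds plus 3 μM co-corrector (final 0.1% DMSO) were then added for 20 h at 33 °C. Washed cells received HRP substrate, and luminescence was normalized between DMSO and 3 μM co-corrector controls.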

ΔF508-CFTR [2] = target: T1, ΔF508-CFTR; assay: CFTR cell surface levels using HRP-tagged ΔF508-CFTR expressing CFBE cells, intrinsic corrector capacity; type: cell-based; conditions: for EC50: read-out: EC50
Method in brief: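 Here the cells express ΔF508-CFTR with horseradish peroxidase inserted in extracellular loop 4, so only rescued channel at the surface gives luminescent signal. Compounds act on their own, 20 h at the reduced temperature of 33 °C; values are percent activity relative to DMSO and a 3 μM corrector.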

[3] = HRP-tagged ΔF508-CFTR CFBE41o- cells, compounds alone (intrinsic corrector capacity), 20 hours at 33° C., positive control 3 μM corrector
[4] = HRP-tagged ΔF508-CFTR CFBE41o- cells, compounds alone (intrinsic corrector capacity), 20 hours at 33° C.
[5] = HRP-tagged ΔF508-CFTR expressing CFBE cells, intrinsic corrector capacity (no co-corrector), 33° C., 20 hours

T1 sequence (P13569 with tags, fused parts or gaps DEL508-508): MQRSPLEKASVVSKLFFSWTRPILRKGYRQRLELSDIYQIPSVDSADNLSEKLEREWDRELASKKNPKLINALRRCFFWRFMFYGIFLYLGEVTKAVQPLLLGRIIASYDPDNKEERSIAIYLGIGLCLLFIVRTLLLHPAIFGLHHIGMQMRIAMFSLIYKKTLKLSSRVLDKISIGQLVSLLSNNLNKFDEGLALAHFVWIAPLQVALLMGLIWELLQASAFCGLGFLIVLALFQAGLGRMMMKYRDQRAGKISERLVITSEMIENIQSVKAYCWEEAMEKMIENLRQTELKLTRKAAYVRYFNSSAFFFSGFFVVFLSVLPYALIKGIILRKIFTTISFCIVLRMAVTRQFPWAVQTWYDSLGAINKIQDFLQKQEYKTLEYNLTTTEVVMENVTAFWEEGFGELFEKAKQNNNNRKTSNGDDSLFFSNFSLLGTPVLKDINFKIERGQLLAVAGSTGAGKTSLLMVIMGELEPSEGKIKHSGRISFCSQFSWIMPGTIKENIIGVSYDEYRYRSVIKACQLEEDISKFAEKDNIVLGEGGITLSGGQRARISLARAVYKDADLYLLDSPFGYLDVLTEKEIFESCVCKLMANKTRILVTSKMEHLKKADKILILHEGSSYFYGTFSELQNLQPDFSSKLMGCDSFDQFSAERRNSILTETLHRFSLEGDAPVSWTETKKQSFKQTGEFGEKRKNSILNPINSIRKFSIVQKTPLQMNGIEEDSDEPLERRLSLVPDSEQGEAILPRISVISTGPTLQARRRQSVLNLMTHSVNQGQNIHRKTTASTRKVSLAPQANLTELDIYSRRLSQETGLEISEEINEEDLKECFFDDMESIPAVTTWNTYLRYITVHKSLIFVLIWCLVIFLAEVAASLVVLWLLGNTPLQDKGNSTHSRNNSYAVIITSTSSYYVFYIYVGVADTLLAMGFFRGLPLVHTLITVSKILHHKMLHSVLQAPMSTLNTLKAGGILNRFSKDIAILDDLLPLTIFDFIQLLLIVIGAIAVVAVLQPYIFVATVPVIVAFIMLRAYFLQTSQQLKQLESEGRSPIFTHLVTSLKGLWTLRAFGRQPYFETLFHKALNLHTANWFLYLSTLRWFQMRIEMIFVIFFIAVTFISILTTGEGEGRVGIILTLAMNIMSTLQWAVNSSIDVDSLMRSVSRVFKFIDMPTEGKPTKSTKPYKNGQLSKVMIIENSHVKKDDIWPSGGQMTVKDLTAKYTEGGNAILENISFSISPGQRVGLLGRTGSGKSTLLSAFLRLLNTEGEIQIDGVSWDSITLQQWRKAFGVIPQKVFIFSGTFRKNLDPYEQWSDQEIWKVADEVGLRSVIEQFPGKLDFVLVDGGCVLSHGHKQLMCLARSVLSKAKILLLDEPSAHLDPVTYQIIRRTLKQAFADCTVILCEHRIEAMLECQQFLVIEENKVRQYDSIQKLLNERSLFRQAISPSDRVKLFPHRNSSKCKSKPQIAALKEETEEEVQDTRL

Structure (SMILES): CC(C)c1nn(-c2ccc(F)c(F)c2)c2nc(C(=O)O)cc(-c3ccc(N(C)C4CCOCC4)cc3)c12 [compound 278, 1-(3,4-difluorophenyl)-4-{4-[methyl(oxan-4-yl)amino]phenyl}-3-(propan-2-yl)-1H-pyrazolo[3,4-b]pyridine-6-carboxylic acid]
- % Activation (ΔF508-CFTR [1]): 446.55%
- EC50 (ΔF508-CFTR [1]): 676 nM
- % Activation (ΔF508-CFTR [2]; [3]): 259.1%
- EC50 (ΔF508-CFTR [2]; [4]): 991 nM

Structure (SMILES): Cc1nn(-c2ccccc2)c2nc(C(=O)O)cc(O[C@H]3CCN(C)C3)c12 [compound 337, 3-methyl-4-{[(3S)-1-methylpyrrolidin-3-yl]oxy}-1-phenyl-1H-pyrazolo[3,4-b]pyridine-6-carboxylic acid]
- % Activation (ΔF508-CFTR [1]): 139.85%
- EC50 (ΔF508-CFTR [1]): 4170 nM
- % Activation (ΔF508-CFTR [2]; [3]): 15.48%
- EC50 (ΔF508-CFTR [2]; [4]): 7500 nM

Structure (SMILES): COc1ccc(-n2nc(C)c3c(-c4ccc(N5CCOCC5)cc4)cc(C(=O)O)nc32)cn1 [compound 61, 1-(6-methoxypyridin-3-yl)-3-methyl-4-[4-(morpholin-4-yl)phenyl]-1H-pyrazolo[3,4-b]pyridine-6-carboxylic acid]
- % Activation (ΔF508-CFTR [1]): 253.6%
- EC50 (ΔF508-CFTR [1]): 2350 nM
- % Activation (ΔF508-CFTR [2]; [3]): 96.05%
- EC50 (ΔF508-CFTR [2]; [4]): 3340 nM

Structure (SMILES): Cc1nn(-c2ccccc2)c2nc(C(=O)O)cc(-c3ccc(N4CCOCC4)c(Br)c3)c12 [compound 66, 4-[3-bromo-4-(morpholin-4-yl)phenyl]-3-methyl-1-phenyl-1H-pyrazolo[3,4-b]pyridine-6-carboxylic acid]
- % Activation (ΔF508-CFTR [1]): 131.3%
- EC50 (ΔF508-CFTR [1]): > 10000 nM
- % Activation (ΔF508-CFTR [2]; [3]): 13.06%
- EC50 (ΔF508-CFTR [2]; [4]): > 10000 nM

Structure (SMILES): CC(C)c1nn(-c2ccc(F)cc2)c2nc(C(=O)O)cc(OCC3(C)CC(F)(F)C3)c12 [compound 652, 4-[(3,3-difluoro-1-methylcyclobutyl)methoxy]-1-(4-fluorophenyl)-3-(propan-2-yl)-1H-pyrazolo[3,4-b]pyridine-6-carboxylic acid]
- % Activation (ΔF508-CFTR [1]): 310.6%
- EC50 (ΔF508-CFTR [1]): 203 nM
- % Activation (ΔF508-CFTR [2]; [5]): 130.6%
- EC50 (ΔF508-CFTR [2]; [5]): 334 nM

Structure (SMILES): Cc1nn(-c2ccccc2)c2nc(C(=O)O)cc(C3CCN(CC#N)CC3)c12 [compound 139, 4-[1-(cyanomethyl)piperidin-4-yl]-3-methyl-1-phenyl-1H-pyrazolo[3,4-b]pyridine-6-carboxylic acid]
- % Activation (ΔF508-CFTR [1]): 104.1%
- EC50 (ΔF508-CFTR [1]): > 10000 nM
- % Activation (ΔF508-CFTR [2]; [3]): −0.041%
- EC50 (ΔF508-CFTR [2]; [4]): > 10000 nM

Structure (SMILES): CC(C)c1nn(C2CCN(CC#N)C2)c2nc(C(=O)O)cc(-c3ccc(N4CCOCC4)cc3)c12 (stereo not shown) [compound 141, 1-[1-(cyanomethyl)pyrrolidin-3-yl]-4-[4-(morpholin-4-yl)phenyl]-3-(propan-2-yl)-1H-pyrazolo[3,4-b]pyridine-6-carboxylic acid]
- % Activation (ΔF508-CFTR [1]): 121.5%
- EC50 (ΔF508-CFTR [1]): > 10000 nM
- % Activation (ΔF508-CFTR [2]; [3]): 5.399%
- EC50 (ΔF508-CFTR [2]; [4]): > 10000 nM

Structure (SMILES): Cc1cccc(-n2nc(C(C)C)c3c(N4CC5CN(CC#N)CC5C4)cc(C(=O)O)nc32)c1 (stereo not shown) [compound 226, 4-[5-(cyanomethyl)hexahydropyrrolo[3,4-c]pyrrol-2(1H)-yl]-1-(3-methylphenyl)-3-(propan-2-yl)-1H-pyrazolo[3,4-b]pyridine-6-carboxylic acid]
- % Activation (ΔF508-CFTR [1]): 352.2%
- EC50 (ΔF508-CFTR [1]): 1350 nM
- % Activation (ΔF508-CFTR [2]; [3]): 189.05%
- EC50 (ΔF508-CFTR [2]; [4]): 3340 nM

Structure (SMILES): CC(C)(C)OC(=O)N1CCCC1c1nn(-c2ccccc2)c2nc(C(=O)O)cc(-c3ccc(N4CCOCC4)cc3)c12 (stereo not shown) [compound 76]
- % Activation (ΔF508-CFTR [1]): 244.2%
- EC50 (ΔF508-CFTR [1]): 430 nM
- % Activation (ΔF508-CFTR [2]; [3]): 117.9%
- EC50 (ΔF508-CFTR [2]; [4]): 835 nM

Structure (SMILES): CN(C)c1ccc(-c2cc(C(=O)O)nc3c2c(C2CC2)nn3C2CCCCC2)cn1 [compound 193, 1-cyclohexyl-3-cyclopropyl-4-[6-(dimethylamino)pyridin-3-yl]-1H-pyrazolo[3,4-b]pyridine-6-carboxylic acid]
- % Activation (ΔF508-CFTR [1]): 402.32%
- EC50 (ΔF508-CFTR [1]): 425 nM
- % Activation (ΔF508-CFTR [2]; [3]): 194.98%
- EC50 (ΔF508-CFTR [2]; [4]): 633 nM

Structure (SMILES): N#CC1CCN(c2ccc(-c3cc(C(=O)O)nc4c3c(C3CCC3)nn4-c3ccnc(N4CCCC4)c3)cn2)CC1 [compound 413, 4-[6-(4-cyanopiperidin-1-yl)pyridin-3-yl]-3-cyclobutyl-1-[2-(pyrrolidin-1-yl)pyridin-4-yl]-1H-pyrazolo[3,4-b]pyridine-6-carboxylic acid]
- % Activation (ΔF508-CFTR [1]): 392.2%
- EC50 (ΔF508-CFTR [1]): 338 nM
- % Activation (ΔF508-CFTR [2]; [5]): 216.65%
- EC50 (ΔF508-CFTR [2]; [5]): 527 nM

Structure (SMILES): Cc1nn(-c2ccccc2)c2nc(C(=O)O)cc(-c3ccc(N(C)C4CCC4)cc3)c12 [compound 115, 4-{4-[cyclobutyl(methyl)amino]phenyl}-3-methyl-1-phenyl-1H-pyrazolo[3,4-b]pyridine-6-carboxylic acid]
- % Activation (ΔF508-CFTR [1]): 354%
- EC50 (ΔF508-CFTR [1]): 1280 nM
- % Activation (ΔF508-CFTR [2]; [3]): 152.3%
- EC50 (ΔF508-CFTR [2]; [4]): 1870 nM

Structure (SMILES): CC(C)c1nn(-c2cccc(N3CCOCC3)c2)c2nc(C(=O)O)cc(-c3cnc(N(C)C4CCOCC4)nc3)c12 [compound 231, 4-{2-[methyl(oxan-4-yl)amino]pyrimidin-5-yl}-1-[3-(morpholin-4-yl)phenyl]-3-(propan-2-yl)-1H-pyrazolo[3,4-b]pyridine-6-carboxylic acid]
- % Activation (ΔF508-CFTR [1]): 625.45%
- EC50 (ΔF508-CFTR [1]): 570 nM
- % Activation (ΔF508-CFTR [2]; [3]): 419%
- EC50 (ΔF508-CFTR [2]; [4]): 733 nM

Structure (SMILES): CC1(F)CN(c2cc(C(=O)O)nc3c2c(C2CCC2)nn3-c2ccccc2)C1 [compound 451, 3-cyclobutyl-4-(3-fluoro-3-methylazetidin-1-yl)-1-phenyl-1H-pyrazolo[3,4-b]pyridine-6-carboxylic acid]
- % Activation (ΔF508-CFTR [1]): 234.95%
- EC50 (ΔF508-CFTR [1]): 874 nM
- % Activation (ΔF508-CFTR [2]; [5]): 71.425%
- EC50 (ΔF508-CFTR [2]; [5]): 1290 nM

Structure (SMILES): COC1CN(CC2CCN(c3cc(C(=O)O)nc4c3c(C3CCC3)nn4-c3ccccc3)CC2)C1 [compound 829, 3-cyclobutyl-4-{4-[(3-methoxyazetidin-1-yl)methyl]piperidin-1-yl}-1-phenyl-1H-pyrazolo[3,4-b]pyridine-6-carboxylic acid]
- % Activation (ΔF508-CFTR [1]): 411.7%
- EC50 (ΔF508-CFTR [1]): 344 nM
- % Activation (ΔF508-CFTR [2]; [5]): 170.7%
- EC50 (ΔF508-CFTR [2]; [5]): 381 nM

Structure (SMILES): O=C(O)c1cc(N2CCC(CN3CC4CC4C3)CC2)c2c(C3CCC3)nn(-c3ccccc3)c2n1 (stereo not shown) [compound 844, 4-{4-[(3-azabicyclo[3.1.0]hexan-3-yl)methyl]piperidin-1-yl}-3-cyclobutyl-1-phenyl-1H-pyrazolo[3,4-b]pyridine-6-carboxylic acid]
- % Activation (ΔF508-CFTR [1]): 429.2%
- EC50 (ΔF508-CFTR [1]): 206 nM
- % Activation (ΔF508-CFTR [2]; [5]): 184.9%
- EC50 (ΔF508-CFTR [2]; [5]): 210 nM

Structure (SMILES): Cc1ccc(-n2nc(C3CCC3)c3c(-c4ccc(N5CCOCC5)cc4)cc(C(=O)O)nc32)cc1F [compound 355, 3-cyclobutyl-1-(3-fluoro-4-methylphenyl)-4-[4-(morpholin-4-yl)phenyl]-1H-pyrazolo[3,4-b]pyridine-6-carboxylic acid]
- % Activation (ΔF508-CFTR [1]): 360.63%
- EC50 (ΔF508-CFTR [1]): 556 nM
- % Activation (ΔF508-CFTR [2]; [3]): 180.03%
- EC50 (ΔF508-CFTR [2]; [4]): 740 nM

Structure (SMILES): CC(C)c1nn(C2CCCCC2)c2nc(C(=O)O)cc(-c3ccc(N4CCOCC4)cc3)c12 [compound 54, 1-cyclohexyl-4-[4-(morpholin-4-yl)phenyl]-3-(propan-2-yl)-1H-pyrazolo[3,4-b]pyridine-6-carboxylic acid]
- % Activation (ΔF508-CFTR [1]): 392.6%
- EC50 (ΔF508-CFTR [1]): 376 nM
- % Activation (ΔF508-CFTR [2]; [3]): 167.9%
- EC50 (ΔF508-CFTR [2]; [4]): 763 nM

Structure (SMILES): N#CC1CCN(c2ccc(-c3cc(C(=O)O)nc4c3c(C3CCC3)nn4-c3cccc(N4CCCC4)c3)cn2)CC1 [compound 248]
- % Activation (ΔF508-CFTR [1]): 606.83%
- EC50 (ΔF508-CFTR [1]): 422 nM
- % Activation (ΔF508-CFTR [2]; [3]): 405.93%
- EC50 (ΔF508-CFTR [2]; [4]): 550 nM
